The source made the active and inactive calls.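 Rule for the calls: active = AC50 no more than ten times the top concentration tested, that is within one log above it; inconclusive = flat curve fit with activity between 30% and 70%, or invalid poor fit; inactive = AC50 beyond ten times the top tested dose.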

The test system of the assay is S. cerevisiae Mot1-301 ts growth rescue, BacTiter-Glo ATP luminescence. Description: restored Mot1-301 yeast growth at 38.5C – whole organism, S. cerevisiae, Mot1-301 ts mutant, luminescence, dose retest, SUMOylation pathway inhibitor project, confirmation (AID 463204).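 Note: growth at restrictive 38.5 degrees C of Mot1-301 OY566 strain; actives raise luminescence by restoring growth of the ts mutant at high temperature.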
Regarding `C(=N\Nc1ccc2nncn2n1)/c1ccccn1`, the AC50 – broadly, the midpoint of the concentration-response curve, whichever way the signal moves – was > 42 µM (inactive). In the case of `Cc1ccc(S(=O)(=O)N(C)c2ccc(OC(=O)CN3C(=O)NC4(CCCC4)C3=O)cc2)cc1C` it was > 42 µM (inactive); in that of `COC(=O)[C@@]12CCCCN1[C@H](c1ccc(-c3cccc(Cl)c3)c(OC)c1)[C@H]1C(=O)N(C)C(=O)[C@H]12`, > 42 µM (inactive); in that of `O=C(N=C1SC2CS(=O)(=O)CC2N1c1ccc(F)c(Cl)c1)C1CC1` (stereo not given), > 42 µM (inactive).

Consider `CCOC(=O)C1(Cc2cccc(Cl)c2)CCCN(C(=O)CCOC)C1` (stereo not given), for which the AC50 was > 42 µM (inactive). The figure for `O=C(COC(=O)/C=C/c1ccco1)Nc1ncc(C(F)(F)F)cc1Cl` is > 42 µM (inactive).

`N#CC(C#N)=C1C=CC=CN1/C(=C\c1ccccc1Cl)C(=O)c1ccccc1`: the AC50 is 2.03 µM. The figure for `COc1ccccc1NC(=O)CN(c1ccc(C)cc1)S(=O)(=O)c1c(C)n[nH]c1C` is > 42 µM (inactive); for `c1ccc2nc3c(nc2c1)OCC1CCCCN31` (stereo not given) it is > 42 µM (inactive). The figure for `O=c1[nH]c(O)c(N=Nc2cc([N+](=O)[O-])ccc2O)c(=O)[nH]1` is > 42 µM (inactive). The figure for `O=C(NCCN1CCOCC1)Nc1ccc(Cl)cc1Cl` is > 42 µM (inactive); for `CCOC(=O)c1c(/N=C/C2C(=O)CCCC2=O)sc2c1CCCC2` it is > 42 µM (inactive). For the molecule `Nc1cc(=O)[nH]c(=O)n1CCc1ccccc1`, the AC50 is > 42 µM (inactive). The figure for `CSCCC(NC(=O)c1ccco1)C(=O)N1CCN(Cc2ccccc2)CC1` (stereo not given) is > 42 µM (inactive). Turning to `O=C(COC(=O)CSc1ccc([N+](=O)[O-])cc1)NC1CCCCCCC1`, the AC50 was > 42 µM (inactive).

Consider `Cc1ccccc1-c1nc(CN2CCCC(C(=O)NCc3cccnc3)C2)c(C)o1` (stereo not given), for which the AC50 is > 42 µM (inactive). Turning to `CC(=O)c1ccc(N=C2SCCCN2C(=O)C2CCCC2)cc1`, the AC50 is > 42 µM (inactive). In the case of `CCCCn1c2nc3ccccc3nc2c2c(=O)n(CCC)cnc21` it was > 42 µM (inactive). The figure for `COc1ccc(NC(=O)Cn2nnc(C(=O)Nc3ccc(F)c(Cl)c3)c2N)cc1` is > 42 µM (inactive); for `c1ccc(CNc2ccc3ccccc3n2)nc1` it is > 42 µM (inactive); for `CCOC(=O)C1C(c2ccc(C)o2)NC(=O)NC1(O)C(F)(F)F` (stereo not given) it is > 42 µM (inactive). In the case of `COCCNC(=O)NC(=O)CSc1nc(C)c(C)c(C)n1` it was > 42 µM (inactive).

For `C/C(=N\N=C(/N)SC1CC(=O)N(c2cccc(Cl)c2)C1=O)c1cccs1` (stereo not given), the AC50 was > 42 µM (inactive).

`COc1ccc(-n2c(SCC(=O)NCC3CCCO3)nc3c(c2=O)SCC3)cc1OC` (stereo not given): the AC50 is > 42 µM (inactive).

`CCC(C)[C@H]1COCCS(=O)(=O)N1Cc1ccc(C)cc1` (stereo not given in full): the AC50 was > 42 µM (inactive).

Regarding `Cc1cccc(OCCC(=O)Nc2ccc(F)c(F)c2)c1`, the AC50 is > 42 µM (inactive). `CC(C)CCNC(=O)Cn1c(=O)oc2cc(S(=O)(=O)N3CC(C)CC(C)C3)ccc21` (stereo not given): the AC50 is > 42 µM (inactive). In the case of `O=C(CCSc1nnnn1-c1ccccc1)N1CCOCC1` it was > 42 µM (inactive); in that of `NC(=O)CN1CCOCCN(CC(N)=O)CCOCC1`, > 42 µM (inactive). The figure for `CCc1ccc2[nH]c(=O)c(C(c3nnnn3Cc3ccccc3)N3CCOCC3)cc2c1` (stereo not given) is > 42 µM (inactive). In the case of `CCN(CC)C1CCN(C(=O)c2cc(COc3ccc(-n4cncn4)cc3)on2)C1` (stereo not given) it was > 42 µM (inactive); in that of `CN(C)c1oc(-c2ccccc2Cl)nc1S(=O)(=O)c1ccccc1`, > 42 µM (inactive).

`O=S(=O)(NCc1ccc(Cl)cc1)c1cnc[nH]1`: the AC50 was > 42 µM (inactive). In the case of `Cc1nn(CC(N)=O)c(=O)c2ccccc12` it was > 42 µM (inactive); in that of `COc1cc2c(cc1OC)C(c1ccccc1C)CC(=O)N2` (stereo not given), > 42 µM (inactive); in that of `COC(=O)C(NC(C)=O)(Nc1nc2ccc(S(C)(=O)=O)cc2s1)C(F)(F)F` (stereo not given), > 42 µM (inactive). The figure for `Cc1cc2c(C)ccc(C)c2nc1SCC(=O)c1cccs1` is > 42 µM (inactive); for `Cc1ccc(N2C(=O)c3cccc4c(N5CCN(C)CC5)ccc(c34)C2=O)c2cccnc12` it is > 42 µM (inactive); for `COc1ccc(CN(C)S(=O)(=O)c2nnc(NC(=O)c3ccc(C)cc3)s2)cc1OC` it is > 42 µM (inactive).

For `CCc1ccc(-n2c(Cc3ccccc3)n[nH]c2=S)cc1`, the AC50 is > 42 µM (inactive). The figure for `O=C(NNC(=O)C12CC3CC(CC(C3)C1)C2)c1ccccn1` is 21 µM. The figure for `CC(C(=O)NCCN1CCOCC1)(c1ccccc1)c1ccccc1` is > 42 µM (inactive). The figure for `COC(=O)C1(Cc2ccc(O)cc2)OC(=O)C(O)=C1c1ccc(O)cc1` (stereo not given) is > 42 µM (inactive); for `S=C(Nc1ccccc1Cl)N1CCOCC1` it is > 42 µM (inactive); for `CC(=Nc1ccccc1)C1=C(O)CC(C)(C)CC1=O` it is > 42 µM (inactive). On to `O=C(NC1CCCC1)C(c1cccs1)N(C(=O)c1ccno1)c1ccccc1` (stereo not given), for which the AC50 was > 42 µM (inactive).

Consider `O=S(=O)(NCCN1CCCC1)c1cccc2cccnc12`, for which the AC50 is > 42 µM (inactive). In the case of `Cc1cccc(N2CCN(CCCNC(=O)c3ccc(NC(=O)C4=CSCCO4)cc3)CC2C)c1` (stereo not given) it was > 42 µM (inactive); in that of `COc1ccccc1N1CCN(C(=O)c2ccc(N3CCCCS3(=O)=O)cc2)CC1`, > 42 µM (inactive).

With `COc1ccc(CCNC(=O)CC2C(=O)NCCN2CC(C)(C)C)cc1` (stereo not given), the AC50 is > 42 µM (inactive).

Regarding `CCn1c(SCC(=O)Nc2nc(-c3ccccc3)cs2)nnc1-c1ccccc1`, the AC50 was > 42 µM (inactive). In the case of `CC1CCN(S(=O)(=O)c2ccc(NC(=O)c3cccs3)cc2)CC1`, the AC50 was > 42 µM (inactive).

Turning to `CC(=O)c1c(Nc2cccc(F)c2)oc(C)cc1=O`, the AC50 was > 42 µM (inactive). In the case of `CCCc1ccccc1OCCNC(C)=O` it was > 42 µM (inactive); in that of `CN1c2ccccc2-c2nc3ccccc3n2C1c1ccncc1` (stereo not given), > 42 µM (inactive).

`O=C(NCCCn1ccnc1)c1ccc(Cl)cc1`: the AC50 is > 42 µM (inactive). In the case of `O=C(O)c1cc(Oc2ccc(C(F)(F)F)cc2Cl)ccc1[N+](=O)[O-]` it was > 42 µM (inactive). The figure for `CC(C)=CC(=O)N1CCCC(N2CCN(c3ccc(F)cc3)CC2)C1` (stereo not given) is > 42 µM (inactive); for `O=Cc1ccc(Oc2cccc(C(F)(F)F)c2)nc1` it is > 42 µM (inactive); for `O=C(O)Cc1sc(Nc2ccccc2)nc1-c1cccs1` it is > 42 µM (inactive). In the case of `O=C(COC(=O)c1ccc([N+](=O)[O-])o1)Nc1ncc(Cl)cc1Cl` it was 9.48 µM; in that of `Cc1ccc(S(=O)(=O)N2[C@@H](c3ccccc3)C(C(=O)O)=CC[C@H]2c2ccc(Cl)cc2)cc1`, 8.57 µM; in that of `CC1(C)CC(=O)c2cnc(NC(=O)CSc3nc4ccccc4o3)nc2C1`, > 42 µM (inactive). Take `c1ccc(OCCCc2nc(-c3cccnc3)no2)cc1`: the AC50 is > 42 µM (inactive). The figure for `Cc1c(C(=O)NC(C)C)oc2c1-c1[nH]ncc1CC2` is > 42 µM (inactive); for `O=C1CN(C(=O)COC(=O)c2ccccc2NCc2ccco2)c2ccccc2N1` it is > 42 µM (inactive). Take `O=C1c2ccccc2S(=O)(=O)N1Cc1cc(=O)n2ccsc2n1`: the AC50 was > 42 µM (inactive). In the case of `CCN(C(=S)NCCOC)c1cccc2ccccc12` it was > 42 µM (inactive). Regarding `Cc1[nH]oc(=O)c1N=Nc1c(Cl)cccc1Cl`, the AC50 is 6.02 µM. The figure for `CCOc1ccc(Cl)cc1S(=O)(=O)N1CCC(C(=O)NCc2cccnc2)CC1` is > 42 µM (inactive).

Regarding `CCOc1ccc(S(=O)(=O)N2CCN(C(=O)CN3C(=O)NC4(CCCC4)C3=O)CC2)cc1`, the AC50 is > 42 µM (inactive). For the molecule `CCN(CC)C(=O)CSc1nnc(CNc2ccc(F)cc2)n1Cc1ccco1`, the AC50 is > 42 µM (inactive).

As for `CC(=O)NCc1c(Cl)cccc1-n1cccc1`, the AC50 is > 42 µM (inactive). In the case of `CC1=CC(=O)C(C(C)C)=C/C1=N/OS(=O)(=O)c1ccccc1` it was 0.92 µM; in that of `CC(C)C(O)(C(=O)NNc1ccccc1)C(C)C`, > 42 µM (inactive). The figure for `Cc1ccccc1NC(=O)COC(=O)C1C2CC3OC(=O)C1C3C2` (stereo not given) is > 42 µM (inactive). The figure for `O=C(COc1ccc(Cl)cc1)NCCCNC(=O)c1ccccn1` is > 42 µM (inactive); for `COc1cc(CNCc2ccc3c(c2)OCO3)c([N+](=O)[O-])cc1OC` it is > 42 µM (inactive). On to `CCn1nc(CC(=O)Nc2ccc(-n3cnnn3)c(C)c2)c2ccccc2c1=O`, for which the AC50 is > 42 µM (inactive).

Consider `Fc1cccc(NC(=S)N2CCn3cccc3C2c2cccnc2)c1` (stereo not given), for which the AC50 is > 42 µM (inactive). In the case of `COc1ccc(OC(=O)c2ccc(Cl)cc2)c(C(C)=O)c1` it was > 42 µM (inactive); in that of `Cc1nn(CC(=O)Nc2ccccn2)c(C)c1[N+](=O)[O-]`, > 42 µM (inactive). In the case of `COCCCNC(=O)c1cc2cc([N+](=O)[O-])cc(OC)c2oc1=O` it was > 42 µM (inactive).

Turning to `COc1ccccc1NC(=O)COC(=O)CC(C)(C)CC1=NS(=O)(=O)c2ccccc2N1`, the AC50 is > 42 µM (inactive). The figure for `Cc1c(C(=O)N2CCCC2)c(S(=O)(=O)Nc2cccc(Br)c2)c(C)n1C` is > 42 µM (inactive); for `COc1cc(C(=O)NCCC2=CCCCC2)cc(OC)c1OC` it is > 42 µM (inactive); for `Cc1cc(Cl)c2oc(C(=O)NC3CCC(O)CC3)c(C)c2c1` (stereo not given) it is > 42 µM (inactive). In the case of `COc1ccc(N2CCN(CCCNC(=O)C(=O)c3c(C)[nH]c4ccccc34)CC2)cc1` it was > 21 µM (inactive); in that of `COc1cccc(NC(=O)CNC(=O)c2ccc(C)cc2)c1`, > 42 µM (inactive); in that of `Cc1c(N=Cc2cc(Br)cc(Br)c2O)cccc1C(=O)O`, 3.14 µM.
